Results as given in ChEMBL document CHEMBL1201862, “PubChem BioAssay data set” (2004).
Calls of active or inactive are those of the source.

Columns and labels:
[1] = biological target: T1, Leucine aminopeptidase (Plasmodium falciparum 3D7, UniProt Q8IL11); assay: P. falciparum M17LAP inhibitors, primary screen, biochemical, fluorogenic H-Leu-NHMec substrate, 1536-well (AID 1619); type: functional
T1 sequence (Q8IL11 whole entry): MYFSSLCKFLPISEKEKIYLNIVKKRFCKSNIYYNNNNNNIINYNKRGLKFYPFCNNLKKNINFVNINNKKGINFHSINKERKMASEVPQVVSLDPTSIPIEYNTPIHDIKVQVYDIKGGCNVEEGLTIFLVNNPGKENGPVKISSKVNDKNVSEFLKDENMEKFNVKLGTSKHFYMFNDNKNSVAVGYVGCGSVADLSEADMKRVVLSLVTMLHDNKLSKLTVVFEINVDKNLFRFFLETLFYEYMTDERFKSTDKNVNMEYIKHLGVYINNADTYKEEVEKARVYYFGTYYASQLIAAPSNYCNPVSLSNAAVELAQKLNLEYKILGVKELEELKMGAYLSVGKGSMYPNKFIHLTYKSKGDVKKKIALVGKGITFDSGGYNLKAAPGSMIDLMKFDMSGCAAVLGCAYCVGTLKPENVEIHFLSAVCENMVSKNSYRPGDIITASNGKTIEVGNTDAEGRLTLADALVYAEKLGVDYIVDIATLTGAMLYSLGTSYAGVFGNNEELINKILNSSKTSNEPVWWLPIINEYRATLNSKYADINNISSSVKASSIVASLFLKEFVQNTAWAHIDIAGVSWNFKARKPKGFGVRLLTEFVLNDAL

[2] = biological target: T2, Calpain-2 catalytic subunit (Sus scrofa, UniProt P43367); assay: m-calpain protease blockers, concentration series – biochemical, fluorogenic peptide substrate, dose response (AID 1420); type: functional
T2 sequence (P43367 whole entry): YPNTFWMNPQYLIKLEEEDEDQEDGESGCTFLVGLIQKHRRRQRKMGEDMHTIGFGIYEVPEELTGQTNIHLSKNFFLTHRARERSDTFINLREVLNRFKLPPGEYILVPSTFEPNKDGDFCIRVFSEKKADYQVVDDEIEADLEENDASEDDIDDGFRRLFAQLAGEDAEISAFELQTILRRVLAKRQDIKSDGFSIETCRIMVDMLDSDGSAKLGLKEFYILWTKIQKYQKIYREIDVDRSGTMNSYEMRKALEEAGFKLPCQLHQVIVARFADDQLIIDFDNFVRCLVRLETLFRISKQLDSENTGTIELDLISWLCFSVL

[3] = blockers of HIV-1 envelope-mediated cell-cell fusion – cherry-pick, dose response (AID 652057); type: functional, cell-based
[4] = blockers of HIV-1 ZM109 envelope-driven cell-cell fusion – HeLa effector, CEM target cells, luciferase, cherry-pick, dose response (AID 652058); type: functional, cell-based;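 note: luciferase signal from HIV-1 Env mediated cell-cell fusion of effector and target cells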
[5] = off-target signal loss in HeLa-CEM21 co-culture – HeLa F-luc CTL cells, cherry-picked, counter-screen for HIV-1 Env fusion inhibitor project, dose response (AID 652040); type: functional, cell-based;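 note: potency for signal decrease marking cytotoxic or nonspecific inhibition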
[6] = HIV-1 AD8 envelope cell-cell fusion blockers – cherry-pick, dose response (AID 652062); type: functional, cell-based;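 note: luciferase signal from cell-cell fusion driven by HIV-1 clade B AD8 Env; potency is for inhibitors of fusion seen as a drop in luminescence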
[7] = biological target: T3, Mannose-6-phosphate isomerase (Homo sapiens, UniProt P34949); assay: MPI inhibition at elevated mannose 6-phosphate – biochemical, fluorescence intensity, high mannose 6-phosphate, primary screen (AID 1220)
T3 sequence (P34949 whole entry): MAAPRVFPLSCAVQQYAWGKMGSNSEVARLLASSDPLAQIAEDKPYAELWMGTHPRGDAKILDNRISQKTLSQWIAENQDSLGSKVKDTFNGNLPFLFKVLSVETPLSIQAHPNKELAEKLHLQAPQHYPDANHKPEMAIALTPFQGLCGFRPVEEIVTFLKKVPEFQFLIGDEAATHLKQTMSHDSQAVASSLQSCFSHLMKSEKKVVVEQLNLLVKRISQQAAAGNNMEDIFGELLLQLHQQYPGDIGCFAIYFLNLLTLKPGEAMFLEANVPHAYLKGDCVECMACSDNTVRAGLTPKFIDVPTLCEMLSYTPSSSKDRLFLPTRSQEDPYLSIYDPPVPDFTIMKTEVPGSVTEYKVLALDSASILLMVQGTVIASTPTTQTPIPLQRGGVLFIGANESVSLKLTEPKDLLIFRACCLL

[8] = biological target: T4, Replicative DNA helicase DnaB (Mycobacterium tuberculosis, UniProt P9WMR3); assay: DnaB intein splicing inhibitors, dose response, biochemical, cell-free fluorescence (AID 449749); type: functional
T4 sequence (P9WMR3 whole entry): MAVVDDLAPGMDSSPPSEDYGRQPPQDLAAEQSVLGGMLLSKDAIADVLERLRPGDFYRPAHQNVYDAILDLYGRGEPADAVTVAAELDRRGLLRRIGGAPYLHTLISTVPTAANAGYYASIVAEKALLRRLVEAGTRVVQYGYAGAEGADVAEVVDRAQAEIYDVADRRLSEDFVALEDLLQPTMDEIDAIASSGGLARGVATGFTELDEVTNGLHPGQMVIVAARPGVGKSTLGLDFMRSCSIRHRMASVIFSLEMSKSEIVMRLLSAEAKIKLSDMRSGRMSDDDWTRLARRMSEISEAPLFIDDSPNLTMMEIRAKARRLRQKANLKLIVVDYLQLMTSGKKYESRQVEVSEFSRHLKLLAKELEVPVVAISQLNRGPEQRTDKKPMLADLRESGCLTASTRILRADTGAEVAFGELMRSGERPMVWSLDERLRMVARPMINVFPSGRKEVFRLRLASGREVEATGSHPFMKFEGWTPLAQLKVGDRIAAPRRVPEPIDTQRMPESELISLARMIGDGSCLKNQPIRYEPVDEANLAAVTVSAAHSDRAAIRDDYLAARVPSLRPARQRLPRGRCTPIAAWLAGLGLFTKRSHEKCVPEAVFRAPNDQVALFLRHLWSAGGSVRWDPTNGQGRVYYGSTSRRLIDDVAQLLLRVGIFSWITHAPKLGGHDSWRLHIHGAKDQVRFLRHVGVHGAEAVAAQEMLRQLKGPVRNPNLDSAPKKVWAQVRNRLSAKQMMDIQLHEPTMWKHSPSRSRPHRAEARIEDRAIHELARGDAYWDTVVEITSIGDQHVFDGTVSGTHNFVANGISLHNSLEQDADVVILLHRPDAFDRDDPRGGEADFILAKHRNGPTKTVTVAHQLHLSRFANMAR

[9] = biological target: T5, Protein RecA (Mycobacterium tuberculosis, UniProt P9WHJ3); assay: Fluorescence Cell-Free Homogeneous Dose Retest to Identify Inhibitors of RecA-Intein Splicing Activity. [Related pubchem assays (depositor defined):AID2097, AID2223, AID489010, AID492950]; type: functional
T5 sequence (P9WHJ3 whole entry): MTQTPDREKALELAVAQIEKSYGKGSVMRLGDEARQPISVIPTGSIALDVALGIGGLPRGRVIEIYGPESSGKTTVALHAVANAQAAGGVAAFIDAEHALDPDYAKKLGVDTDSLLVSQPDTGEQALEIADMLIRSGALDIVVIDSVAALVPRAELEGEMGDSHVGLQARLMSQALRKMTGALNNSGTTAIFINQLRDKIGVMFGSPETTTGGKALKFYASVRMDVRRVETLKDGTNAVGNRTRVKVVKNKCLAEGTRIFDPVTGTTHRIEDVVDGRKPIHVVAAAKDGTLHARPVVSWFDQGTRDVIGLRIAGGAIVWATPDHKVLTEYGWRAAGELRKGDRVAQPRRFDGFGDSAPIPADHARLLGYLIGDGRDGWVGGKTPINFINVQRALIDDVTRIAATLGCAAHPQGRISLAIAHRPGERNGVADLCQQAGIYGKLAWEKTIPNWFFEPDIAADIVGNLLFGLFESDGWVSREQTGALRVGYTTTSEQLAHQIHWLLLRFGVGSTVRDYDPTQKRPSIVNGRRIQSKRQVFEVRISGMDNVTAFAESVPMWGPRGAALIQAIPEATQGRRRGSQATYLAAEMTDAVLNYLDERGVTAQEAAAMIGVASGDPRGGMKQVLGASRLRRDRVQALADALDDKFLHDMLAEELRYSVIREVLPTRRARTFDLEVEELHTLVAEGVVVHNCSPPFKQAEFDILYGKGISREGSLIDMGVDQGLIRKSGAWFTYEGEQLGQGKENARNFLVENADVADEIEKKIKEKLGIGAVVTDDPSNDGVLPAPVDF

[10] = biological target: Induced myeloid leukemia cell differentiation protein Mcl-1 (Homo sapiens, UniProt Q07820); type: functional
Chain of Induced myeloid leukemia cell differentiation protein Mcl-1 (Q07820 whole entry): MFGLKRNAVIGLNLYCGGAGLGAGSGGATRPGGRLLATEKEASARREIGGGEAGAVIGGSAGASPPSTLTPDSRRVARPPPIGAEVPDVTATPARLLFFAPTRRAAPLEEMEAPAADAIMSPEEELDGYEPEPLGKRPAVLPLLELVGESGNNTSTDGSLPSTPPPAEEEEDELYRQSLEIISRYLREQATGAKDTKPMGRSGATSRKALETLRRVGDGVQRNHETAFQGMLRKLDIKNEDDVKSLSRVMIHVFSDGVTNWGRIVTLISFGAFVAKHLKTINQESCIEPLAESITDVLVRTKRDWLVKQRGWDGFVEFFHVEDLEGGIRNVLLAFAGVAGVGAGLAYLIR

[11] = Luminescence Cell-Based Dose Response HTS to Identify Activators of Luciferase Translation or Activity in H4 […] Cells. [Related pubchem assays: 1829 (Project Summary), 1814 (Primary HTS)]; type: functional
[12] = system: H4; assay: Luminescence Cell-Based Dose Response HTS to Identify Activators of 5'UTR Stem-Loop Driven Prion Protein mRNA Translation in H4 Neuroglioblastoma Cells. [Related pubchem assays: 1829 (Project Summary), 1814 (Primary HTS)]; type: functional; conditions: Homo sapiens
[13] = biological target: Mitogen-activated protein kinase 10 (Homo sapiens, UniProt P53779); assay: Dose response biochemical screening assay for inhibitors of c-Jun N-Terminal Kinase 3 (JNK3). [Related pubchem assays: 746 ]
Chain of Mitogen-activated protein kinase 10 (P53779 whole entry): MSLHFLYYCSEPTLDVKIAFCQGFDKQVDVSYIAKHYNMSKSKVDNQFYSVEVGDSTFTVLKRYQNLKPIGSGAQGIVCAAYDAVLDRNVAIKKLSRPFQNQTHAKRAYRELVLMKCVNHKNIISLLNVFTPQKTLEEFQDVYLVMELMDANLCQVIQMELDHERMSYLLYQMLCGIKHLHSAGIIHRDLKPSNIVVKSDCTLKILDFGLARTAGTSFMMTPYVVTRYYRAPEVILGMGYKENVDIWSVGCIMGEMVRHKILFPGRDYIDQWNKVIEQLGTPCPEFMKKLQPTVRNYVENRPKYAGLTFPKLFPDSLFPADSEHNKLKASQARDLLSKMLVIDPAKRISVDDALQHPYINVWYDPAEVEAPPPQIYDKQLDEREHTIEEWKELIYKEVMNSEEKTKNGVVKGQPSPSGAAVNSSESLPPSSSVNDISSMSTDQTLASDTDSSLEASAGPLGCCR

[14] = biological target: T6, Protein skinhead-1 (Caenorhabditis elegans, UniProt P34707); type: functional
T6 sequence (P34707 whole entry): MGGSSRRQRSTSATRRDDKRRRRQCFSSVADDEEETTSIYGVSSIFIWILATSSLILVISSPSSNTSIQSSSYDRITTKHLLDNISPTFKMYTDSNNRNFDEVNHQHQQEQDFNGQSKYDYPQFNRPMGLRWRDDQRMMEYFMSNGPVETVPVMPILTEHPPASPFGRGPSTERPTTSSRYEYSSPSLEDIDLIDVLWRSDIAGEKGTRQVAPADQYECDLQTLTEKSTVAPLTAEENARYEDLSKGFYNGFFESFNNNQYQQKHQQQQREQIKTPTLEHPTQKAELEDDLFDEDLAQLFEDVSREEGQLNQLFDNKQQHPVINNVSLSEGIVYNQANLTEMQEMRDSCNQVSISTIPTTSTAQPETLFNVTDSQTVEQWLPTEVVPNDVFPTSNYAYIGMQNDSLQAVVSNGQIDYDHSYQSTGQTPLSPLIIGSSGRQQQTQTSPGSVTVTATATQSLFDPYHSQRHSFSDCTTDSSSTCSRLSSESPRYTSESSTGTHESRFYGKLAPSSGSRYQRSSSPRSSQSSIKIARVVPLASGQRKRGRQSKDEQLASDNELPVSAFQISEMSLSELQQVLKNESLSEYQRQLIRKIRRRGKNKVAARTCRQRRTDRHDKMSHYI

[15] = reduction of Shn3 3'UTR-driven luciferase in osteoblasts – cell-based, Clone20 osteoblasts, firefly luciferase, cherry-picked, dose response (AID 624132); type: functional;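 note: firefly luciferase luminescence from reporter carrying the Shn3 3'UTR in osteoblasts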
[16] = loss of viability in HepG2 cells – cell-based, CellTiter-Glo, cherry-picked, cytotoxicity control for Shn3 inhibitor project, dose response (AID 624134); type: functional
[17] = non-specific 3'UTR reporter inhibition in Clone20-Shn3RL – cell-based, Renilla luciferase, cherry-picked, counter-screen for Shn3 inhibitor project, dose response (AID 624133); type: functional
[18] = biological target: T7, Ubiquitin-conjugating enzyme E2 N (Homo sapiens, UniProt P61088); type: functional;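 note: Dose-response confirmation in a TR-FRET assay detecting UBC13-driven polyubiquitin chain formation, inhibition measured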
T7 sequence (P61088 whole entry): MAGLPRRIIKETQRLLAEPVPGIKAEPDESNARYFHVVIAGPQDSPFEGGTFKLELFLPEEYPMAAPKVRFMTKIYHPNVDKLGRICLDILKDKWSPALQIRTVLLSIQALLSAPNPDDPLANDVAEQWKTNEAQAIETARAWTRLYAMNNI

CCc1nnc(NS(=O)(=O)c2ccc(NC(=O)COc3ccc4ccccc4c3)cc2)s1
IC50 [1]: 5.1 µM (active)

CC(C)(C)C1CCc2onc(C(=O)NCc3ccc(F)cc3)c2C1 (centres undefined)
IC50 [2]: > 50 µM (not active)
AC50 [3]: 23 µM (active)
AC50 [4]: 2.91 µM (active)
AC50 [5]: 37 µM (active)
AC50 [6]: 21.9 µM (active)

CCCC(=O)OCCNc1cc(SCCC(=O)OC)c2nonc2c1[N+](=O)[O-]
IC50 [7]: > 50 µM (not active)
AC50 [8]: 2.88 µM (active)
EC50 [9]: 4.87 µM (active)

CN(C)c1ccc(C(CNC(=O)c2ccc(C#N)cc2)c2c[nH]c3ccccc23)cc1 (centres undefined)
IC50 [10]: 2.78 µM (not active)

CC(C)Oc1ccc(CCc2nnc(S)n2Cc2ccccc2)cc1
IC50 [2]: 4.67 µM (not active)

COc1ccc(NC(=O)CN2C(=O)/C(=C3\SC(=S)N(C4CCS(=O)(=O)C4)C3=O)c3ccccc32)cc1 (centres undefined)
IC50 [10]: 3.39 µM (active)

c1ccc(-n2nc3ccc4c[nH]nc4c3n2)cc1
EC50 [11]: > 120 µM (not active)
EC50 [12]: 0.327 µM (active)
IC50 [13]: 43 µM (not active)
IC50 [14]: > 100 µM (inactive)

O=C(O)CC12CC3CC(C1)CC(n1ncc(NCc4ccc(F)cc4)c(Cl)c1=O)(C3)C2
IC50 [1]: 54 µM (active)

CC1CCC2C(=O)N(c3ccc(Cc4ccncc4)cc3)C(=O)C2C1 (centres undefined)
IC50 [2]: 13.3 µM (not active)
AC50 [15]: 2.65 µM (active)
AC50 [16]: 47.7 µM (active)
AC50 [17]: 5.74 µM (active)

Cc1ccc(Nc2cnn(C34CC5CC(CC(CC(=O)O)(C5)C3)C4)c(=O)c2Cl)cc1
IC50 [1]: 44.1 µM (active)

Cc1ccc(/N=C2\C(Cl)=C(O)OC2OC(=O)c2ccccc2C)cc1 (centres undefined)
IC50 [2]: 12.6 µM (not active)
IC50 [18]: > 20 µM (inactive)
